# Target: T1, human H-PGDS (Homo sapiens, UniProt O60760)
# T1 construct: Full length human H-PGDS cDNA (Invitrogen Ultimate ORF IOH13026) was amplified by PCR; 6-His (N); TEV protease cleavage site (N); made in house; host or cells: E. coli BL21 (DE3*) for H-PGDS; Sf9 insect cells (baculovirus) for COX-2
# Assay: H-PGDS RapidFire high throughput mass spectrometry assay
# Format: biochemical
# Conditions: inhibition of conversion of PGH2 to PGD2 by H-PGDS
# Description: H-PGDS RapidFire™ High Throughput Mass Spectrometry Assay
# The H-PGDS RapidFire™ mass spectrometric assay monitors conversion of prostaglandin H2 (PGH2) to prostaglandin D2 (PGD2) by haematopoietic prostaglandin D synthase (H-PGDS). In the assay format described here, the substrate (PGH2) is formed in situ by the action of cyclooxygenase-2 on arachidonic acid. This first step is set up to be fast, and generates a burst of PGH2 at ˜10 μM. The PGH2 is then further converted to PGD2 by the H-PGDS enzyme. […] Plates are then read on the RapidFire™ high throughput solid phase extraction system (Agilent) which incorporates a solid phase extraction step coupled to a triple quadrupole mass spectrometer (AB SCIEX). Relative levels of PGD2 and PGF2α, which acts as a surrogate for substrate, are measured and a percent conversion calculated. Inhibitors are characterised as compounds which lower the conversion of PGH2 to PGD2.
# Full length human H-PGDS cDNA (Invitrogen Ultimate ORF IOH13026) was amplified by PCR with the addition of a 5′ 6-His tag and TEV protease cleavage site. The PCR product was digested with NdeI and XhoI and ligated into pET22b+ (Merck Novagen®). Expression was carried out in E. coli strain BL21 (DE3*) using auto-induction Overnight Express™ Instant TB medium (Merck Novagen®) supplemented with 1% glycerol. The culture was first grown at 37° C. and the temperature was reduced to 25° C. when OD600 reached 2.0. Cells were harvested by centrifugation after a further 18 hours. 10 g of E. coli cell pellet was suspended to a total volume of 80 mL in lysis buffer (20 mM Tris-Cl pH 7.5, 300 mM NaCl, 20 mM imidazole, 5 mM p-mercaptoethanol, 10% glycerol). 1 mg/mL protease inhibitors (Protease Inhibitor Cocktail Set III, Merck Calbiochem®) and 1 mg/mL lysozyme were added to the cell suspension. The suspension was then sonicated for 5 min (UltraSonic Processor VCX 750, Cole-Parmer Instrument Co.) with a micro probe (50% amplitude, 10 sec on/off) and then centrifuged at 100,000 g for 90 minutes (at 4° C.). The supernatant was loaded onto a Ni-NTA HiTrap column (5 mL, GE Healthcare, pre-equilibrated in lysis buffer). The column was washed with 10 column volumes of lysis buffer and eluted with lysis buffer containing 500 mM imidazole. The pooled protein peak fractions were concentrated using a 10 kDa centrifugal filter at 3500 g and 4° C. (Amicon Ultra-15 centrifugal filter unit with Ultracel-10 membrane from Millipore). Further purification of the concentrated protein was carried out using gel filtration chromatography on a HiLoad 26/600 Superdex 75 preparative grade column (GE Healthcare Life Sciences) using 50 mM Tris pH 7.5, 50 mM NaCl, 1 mM dithiothreitol, 1 mM MgCl2. Fractions containing the protein were pooled, concentrated as described above, and stored at −80° C.
# The full length human COX-2 gene (accession number L15326) was amplified by PCR to generate an EcoRI—HindIII fragment containing an in-frame FLAG tag. This was subcloned into pFastBac 1 (Invitrogen). The COX-2 FLAG plasmid was recombined into the baculovirus genome according to the BAC-to-BAC protocol described by Invitrogen. Transfection into Spodoptera frugiperda (Sf9) insect cells was performed using Cellfectin (Invitrogen), according to the manufacturer's protocol. Super Sf9 cells were cultured in EX420 media (SAFC Biosciences) to a density of approximately 1.5×10^6 cells/mL within a wave bioreactor. Recombinant virus was added at a Multiplicity of Infection (MOI) of 5 and the culture was allowed to continue for 3 days. Cells were harvested using a continuous feed centrifuge run at 2500 g at a rate of approximately 2 L/min with cooling. The resultant cell slurry was re-centrifuged in pots (2500 g, 20 min, 4° C.) and the cell paste was stored at −80° C. […]
# T1 sequence (O60760 whole entry): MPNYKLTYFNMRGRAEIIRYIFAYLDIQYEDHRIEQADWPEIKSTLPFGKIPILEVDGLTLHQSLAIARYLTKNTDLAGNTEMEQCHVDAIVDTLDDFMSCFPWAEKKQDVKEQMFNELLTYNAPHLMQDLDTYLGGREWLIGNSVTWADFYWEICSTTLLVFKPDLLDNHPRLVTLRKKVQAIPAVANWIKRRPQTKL
row,SMILES,Potency Range (mean pIC50)
1,"C[C@H]1CNC(=O)[C@H]1NC(=O)c1cnc(-c2cc(F)cc(Cl)c2)s1 (racemic) [Example 74, Racemic cis-2-(3-Chloro-5-fluorophenyl)-N-(4-methyl-2-oxopyrrolidin-3-yl)thiazole-5-carboxamide]",*** (*** = pIC50 7.00-7.99)

# Same assay, conditions: inhibition of conversion of PGH2 to PGD2 by H-PGDS; mean pIC50; read-out: Potency Range (mean pIC50) (converted)
row,SMILES,IC50 [nM]
1,"CCC1(CC)CNC(=O)[C@H]1NC(=O)c1cnc(-c2cc(F)cc(Cl)c2)s1 [Example 25, (S)-2-(3-Chloro-5-fluorophenyl)-N-(4,4-diethyl-2-oxopyrrolidin-3-yl)thiazole-5-carboxamide]",10.2 to 100
2,"C[C@@H]1C[C@H](NC(=O)c2cnc(-c3cc(F)cc(Cl)c3)s2)C(=O)N1 [Example 62, 2-(3-Chloro-5-fluorophenyl)-N-((3S,5R)-5-methyl-2-oxopyrrolidin-3-yl)thiazole-5-carboxamide]",10.2 to 100
3,"C[C@@H]1CNC(=O)[C@H]1NC(=O)c1cnc(-c2cc(F)cc(Cl)c2)s1 [Example 11, 2-(3-Chloro-5-fluorophenyl)-N-((3S,4R)-4-methyl-2-oxopyrrolidin-3-yl)thiazole-5-carboxamide]",1.02 to 10
4,"O=C(NN1CCNC1=O)c1cnc(-c2cc(F)cc(Cl)c2)s1 [Example 79, 2-(3-Chloro-5-fluorophenyl)-N-(2-oxoimidazolidin-1-yl)thiazole-5-carboxamide]",10.2 to 100
5,"O=C(N[C@H]1CCNC1=O)c1cnc(-c2cccc(Cl)c2)s1 [Example 3, (S)-2-(3-Chlorophenyl)-N-(2-oxopyrrolidin-3-yl)thiazole-5-carboxamide]",10.2 to 100
6,"O=C(NC1CC2(CCC2)NC1=O)c1cnc(-c2cc(F)cc(Cl)c2)s1 (racemic) [Example 27, Racemic 2-(3-Chloro-5-fluorophenyl)-N-(6-oxo-5-azaspiro[3.4]octan-7-v)thiazole-5-carboxamide]",10.2 to 100
7,"O=C(N[C@@H]1CC2(CCC2)NC1=O)c1cnc(-c2cc(F)cc(Cl)c2)s1 [Example 28, (R)-2-(3-Chloro-5-fluorophenyl)-N-(6-oxo-5-azaspiro[3.4]octan-7-yl)thiazole-5-carboxamide]",102 to 1000
8,"Cc1cnn(-c2ncc(C(=O)N[C@H]3CCNC3=O)s2)c1 [Example 31, (S)-2-(4-Methyl-1H-pyrazol-1-yl)-N-(2-oxopyrrolidin-3-yl)thiazole-5-carboxamide]",1020 to 10000
9,"O=C(NC1CC2(CC2)NC1=O)c1cnc(-c2cc(F)cc(Cl)c2)s1 (racemic) [Example 20, Racemic 2-(3-Chloro-5-fluorophenyl)-N-(5-oxo-4-azaspiro[2.4]heptan-6-Yl)thiazole-5-carboxamide]",10.2 to 100
10,"CC1(NC(=O)c2cnc(-c3cc(F)cc(Cl)c3)s2)CCNC1=O (racemic) [Example 71, Racemic 2-(3-Chloro-5-fluorophenyl)-N-(3-methyl-2-oxopyrrolidin-3-yl)thiazole-5-carboxamide]",102 to 1000
11,"CN1CCC(NC(=O)c2cnc(-c3cc(F)cc(Cl)c3)s2)C1=O (racemic) [Example 63, Racemic 2-(3-Chloro-5-fluorophenyl)-N-(1-methyl-2-oxopyrrolidin-3-yl)thiazole-5-carboxamide]",10.2 to 100
12,"O=C(N[C@H]1CCNC1=O)c1cnc(-c2cc(Cl)ccc2F)s1 [Example 7, (S)-2-(5-Chloro-2-fluorophenyl)-N-(2-oxopyrrolidin-3-yl)thiazole-5-carboxamide]",10.2 to 100
13,"O=C(N[C@H]1CCNC1=O)c1cnc(-c2ccccc2)s1 [Example 33, (S)-N-(2-Oxopyrrolidin-3-yl)-2-phenylthiazole-5-carboxamide]",10.2 to 100
14,"O=C(N[C@H]1CCNC1=O)c1cnc(-c2cccc(Br)c2)s1 [Example 37, (S)-2-(3-Bromophenyl)-N-(2-oxopyrrolidin-3-yl)thiazole-5-carboxamide]",10.2 to 100
15,"O=C(N[C@H]1C(=O)N[C@H]2CCC[C@H]21)c1cnc(-c2cc(F)cc(Cl)c2)s1 (racemic) [Example 58, Racemic 2-(3-Chloro-5-fluorophenyl)-N-((3R,3aR,6aS)-2-oxooctahydrocyclopenta[b]pyrrol-3-yl)thiazole-5-carboxamide; and 2-(3-Chloro-5-fluorophenyl)-N-((3S,3aS,6aR)-2-oxooctahydrocyclopenta[b]pyrrol-3-yl)thiazole-5-carboxamide]",10.2 to 100
16,"O=C(N[C@@H]1C(=O)N[C@H]2CCC[C@H]21)c1cnc(-c2cc(F)cc(Cl)c2)s1 [Example 51, 2-(3-Chloro-5-fluorophenyl)-N-((3S,3aR,6aS)-2-oxooctahydrocyclopenta[b]pyrrol-3-yl)thiazole-5-carboxamide]",1.02 to 10
17,"CN(C(=O)c1cnc(-c2cc(F)cc(Cl)c2)s1)[C@H]1CCNC1=O [Example 66, (S)-2-(3-Chloro-5-fluorophenyl)-N-methyl-N-(2-oxopyrrolidin-3-yl)thiazole-5-carboxamide]",1020 to 10000
18,"CC1(C)CC(NC(=O)c2cnc(-c3cc(F)cc(Cl)c3)s2)C(=O)N1 (racemic) [Example 14, Racemic 2-(3-Chloro-5-fluorophenyl)-N-(5,5-dimethyl-2-oxopyrrolidin-3-yl)thiazole-5-carboxamide]",10.2 to 100
19,"O=C(N[C@H]1C(=O)N[C@H]2CCC[C@H]21)c1cnc(-c2cc(F)cc(Cl)c2)s1 [Example 59, 2-(3-Chloro-5-fluorophenyl)-N-((3R,3aR,6aS)-2-oxooctahydrocyclopenta[b]pyrrol-3-yl)thiazole-5-carboxamide]",102 to 1000
20,"O=C(N[C@H]1CCNC1=S)c1cnc(-c2cc(F)cc(Cl)c2)s1 [Example 77, (S)-2-(3-Chloro-5-fluorophenyl)-N-(2-thioxopyrrolidin-3-yl)thiazole-5-carboxamide]",1.02 to 10
21,"O=C(N[C@H]1CCNC1=O)c1cnc(-c2cccnc2)s1 [Example 40, (S)-N-(2-Oxopyrrolidin-3-yl)-2-(pyridin-3-yl)thiazole-5-carboxamide]",102 to 1000
22,"CC1(C)CC(NC(=O)c2cnc(-c3cc(F)cc(Cl)c3)s2)C(=S)N1 (racemic) [Example 83, Racemic 2-(3-Chloro-5-fluorophenyl)-N-(5,5-dimethyl-2-thioxopyrrolidin-3-yl)thiazole-5-carboxamide]",1.02 to 10
23,"O=C(N[C@H]1CC2(CCC2)NC1=O)c1cnc(-c2cc(F)cc(Cl)c2)s1 [Example 29, (S)-2-(3-Chloro-5-fluorophenyl)-N-(6-oxo-5-azaspiro[3.4]octan-7-yl)thiazole-5-carboxamide]",1.02 to 10
24,"CN(C(=O)c1cnc(-c2cc(F)cc(Cl)c2)s1)C1CCNC1=O (racemic) [Example 65, Racemic 2-(3-Chloro-5-fluorophenyl)-N-methyl-N-(2-oxopyrrolidin-3-yl)thiazole-5-carboxamide]",1020 to 10000
25,"O=C(N[C@H]1CC2(COC2)NC1=O)c1cnc(-c2cc(F)cc(Cl)c2)s1 [Example 57, (S)-2-(3-Chloro-5-fluorophenyl)-N-(6-oxo-2-oxa-5-azaspiro[3.4]octan-7-yl)thiazole-5-carboxamide]",1.02 to 10
26,"C[C@H]1[C@H](C)NC(=O)[C@@H]1NC(=O)c1cnc(-c2cc(F)cc(Cl)c2)s1 [Example 35, 2-(3-Chloro-5-fluorophenyl)-N-((3R,4S,5S)-4,5-dimethyl-2-oxopyrrolidin-3-yl)thiazole-5-carboxamide]",102 to 1000

# From patent publication US20220009918A1, “Chemical Compounds” (GlaxoSmithKline Intellectual Property Development Limited, priority 2018, published 2022)
